Data as given in PMC6272684, “Synthesis, Antiproliferative and Antifungal Activities of 1,2,3-Triazole-Substituted Carnosic Acid and Carnosol Derivatives” (Molecules, 2015).

Columns and labels:
C. neoformans ATCC 32264 = assay: Antifungal broth microdilution (CLSI M27-A3), growth inhibition; type: cell-based, Cryptococcus neoformans; conditions: for MIC50 (minimum concentration to inhibit 50% of fungal growth), C. neoformans: C. neoformans ATCC 32264
Experimental: (§1) The antifungal properties of compounds 1–24 against two clinical important fungal species, C. albicans ATCC 10231 and C. neoformans ATCC 32264 were investigated. Results were expressed as the percentages of inhibition of each fungus in the range 250–3.9 μg∙mL^−1 by using the standardized microbroth dilution method M-27A3 of Clinical and Laboratory Standards Institute which assures reliable and reproducible results.
(§2) For the antifungal evaluation, standardized strains from the American Type Culture Collection (ATCC), Rockville, MD, USA, were used. The microorganisms included yeasts (Candida albicans ATCC 10231 and Cryptococcus neoformans ATCC 32264). Strains were grown on Sabouraud-chloramphenicol agar slants for 48 h at 30 °C, maintained on slopes of Sabouraud-dextrose agar (SDA, Oxoid), and subcultured every 15 days to prevent pleomorphic transformations. Inocula of cell or spore suspensions were obtained according to reported procedures and adjusted to 1–5 × 10^3 cells/spores with colony forming units (CFU)/mL [29].
(§3) Broth microdilution techniques were performed in 96-well microplates according to the Clinical and Laboratory Standards Institute Reference Method for Broth Dilution Antifungal Susceptibility Testing of Yeasts, Approved Standard M27-A3 [29]. For the assay, compound test wells (CTWs) were prepared with stock solutions of each compound in DMSO (maximum concentration ≤1%), diluted with RPMI-1640, to final concentrations of 250–3.9 μg∙mL^−1. An inoculum suspension (100 μL) was added to each well (final volume in the well = 200 μL). A growth control well (GCW) (containing medium, inoculum, and the same amount of DMSO used in a CTW, but compound-free) and a sterility control well (SCW) (sample, medium, and sterile water instead of inoculum) were included for each fungus tested. Microtiter trays were incubated in a moist, dark chamber at 30 °C for 48 h for both yeasts. Microplates were read in a VERSA Max microplate reader (Molecular Devices, Sunnyvale, CA, USA). Amphotericin B (Sigma-Aldrich) was used as positive control. Tests were performed in triplicate. Reduction of growth for each compound concentration was calculated as follows: % of inhibition = 100 − (OD 405 CTW − OD 405 SCW)/(OD 405 GCW − OD 405 SCW). The means ± SEM were the results of triplicate tests. Three endpoints were defined from the assay explained above and the dose-response curves. Minimum Inhibitory concentration (MIC) resulting in total fungal growth inhibition was named MIC100 while MIC50 was defined as the minimum concentration that inhibits 50% of the fungal growth.

C. albicans ATCC 10231 = assay: as above; type: cell-based, Candida albicans; conditions: for MIC50 (minimum concentration to inhibit 50% of fungal growth), C. albicans: C. albicans ATCC 10231
Experimental: as §1, §2, §3

MIC50 (minimum concentration to inhibit 50% of fungal growth), C. neoformans (C. neoformans ATCC 32264) | MIC50 (minimum concentration to inhibit 50% of fungal growth), C. albicans (C. albicans ATCC 10231) | Structure (SMILES) | Inhibition percentage against C. neoformans ATCC 32264 (C. neoformans ATCC 32264; 3.9 μg∙mL^−1, 48 h) | Inhibition percentage against C. neoformans ATCC 32264 (C. neoformans ATCC 32264; 7.8 μg∙mL^−1, 48 h) | Inhibition percentage against C. neoformans ATCC 32264 (C. neoformans ATCC 32264; 15.6 μg∙mL^−1, 48 h) | Inhibition percentage against C. neoformans ATCC 32264 (C. neoformans ATCC 32264; 31.2 μg∙mL^−1, 48 h) | Inhibition percentage against C. neoformans ATCC 32264 (C. neoformans ATCC 32264; 62.5 μg∙mL^−1, 48 h) | Inhibition percentage against C. neoformans ATCC 32264 (C. neoformans ATCC 32264; 125 μg∙mL^−1, 48 h) | Inhibition percentage against C. neoformans ATCC 32264 (C. neoformans ATCC 32264; 250 μg∙mL^−1, 48 h) | Inhibition percentage against C. albicans ATCC 10231 (C. albicans ATCC 10231; 3.9 μg∙mL^−1, 48 h) | Inhibition percentage against C. albicans ATCC 10231 (C. albicans ATCC 10231; 7.8 μg∙mL^−1, 48 h) | Inhibition percentage against C. albicans ATCC 10231 (C. albicans ATCC 10231; 15.6 μg∙mL^−1, 48 h) | Inhibition percentage against C. albicans ATCC 10231 (C. albicans ATCC 10231; 62.5 μg∙mL^−1, 48 h) | Inhibition percentage against C. albicans ATCC 10231 (C. albicans ATCC 10231; 125 μg∙mL^−1, 48 h) | Inhibition percentage against C. albicans ATCC 10231 (C. albicans ATCC 10231; 250 μg∙mL^−1, 48 h) | Inhibition percentage against C. albicans ATCC 10231 (C. albicans ATCC 10231; 31. μg∙mL^−1, 48 h) | Antifungal activity against C. albicans (in words) (C. albicans ATCC 10231; at the assayed concentrations (250–3.9 μg∙mL^−1))
>250 µg/mL | 250 µg/mL | CC(C)c1cc2c(c(OC(=O)CCCc3cn(CSc4ccccc4)nn3)c1OC(=O)CCCc1cn(CSc3ccccc3)nn1)C13CCCC(C)(C)C1CC2OC3=O (stereo not drawn) [Compound 18, (7β)-11,12-O-(4-(((1-phenylthio)methyl)-1H-1,2,3-triazol-4-yl)-butanoyloxy)-7,20-epoxyabieta-8,11,13-trien-20-one] | 0.0% | 0.0% | 0.0% | 0.0% | 0.0% | 11.8 ± 0.6% | 44.3 ± 1.9% | 1.0 ± 0.1% | 2.5 ± 0.2% | 2.8 ± 1.0% | 18.3 ± 0.1% | 35.4 ± 2.1% | 57.9 ± 1.0% | 11.5 ± 1.8% | –
>250 µg/mL | >250 µg/mL | CC(C)c1cc2c(c(OC(=O)CCc3cn(Cc4ccccc4)nn3)c1OC(=O)CCc1cn(Cc3ccccc3)nn1)C13CCCC(C)(C)C1CC2OC3=O (stereo not drawn) [Compound 19, (7β)-11,12-O-(3-(1-benzyl-1H-1,2,3-triazol-4-yl)-propanoyloxy)-7,20-epoxyabieta-8,11,13-trien-20-one] | 0.0% | 0.0% | 0.0% | 0.0% | 3.3 ± 1.1% | 7.1 ± 2.0% | 31.3 ± 1.6% | 0.7 ± 0.3% | 3.2 ± 0.1% | 3.2 ± 0.1% | 11.9 ± 1.0% | 21.1 ± 1.0% | 37.8 ± 0.5% | 4.6 ± 1.8% | –
>250 µg/mL | >250 µg/mL | COC(=O)C12CCCC(C)(C)C1CCc1cc(C(C)C)c(OC(=O)CCc3cn(Cc4ccc([N+](=O)[O-])cc4)nn3)c(OC(=O)CCc3cn(Cc4ccc([N+](=O)[O-])cc4)nn3)c12 (stereo not shown) [Compound 15, Methyl(11,12-O-(3-(1-(4-nitrobenzyl)-1H-1,2,3-triazol-4-yl)-propanoyloxy)-abieta-8,11,13-triene)-20-oate] | 0.0% | 0.0% | 10.0 ± 0.6% | 13.0 ± 1.4% | 15.5 ± 2.0% | 22.0 ± 2.7% | 45.4 ± 3.0% | 0.0% | 0.0% | 2.6 ± 0.3% | 8.2 ± 0.3% | 15.2 ± 2.8% | 33.4 ± 2.7% | 3.0 ± 1.1% | –
>250 µg/mL | >250 µg/mL | CC(C)c1cc2c(c(OC(=O)CCc3cn(CSc4ccccc4)nn3)c1OC(=O)CCc1cn(CSc3ccccc3)nn1)C13CCCC(C)(C)C1CC2OC3=O (stereo not drawn) [Compound 17, (7β)-11,12-O-(3-(((1-phenylthio)methyl)-1H-1,2,3-triazol-4-yl)-propanoyloxy)-7,20-epoxyabieta-8,11,13-trien-20-one] | 0.0% | 0.0% | 0.0% | 0.0% | 0.0% | 11.4 ± 1.2% | 41.1 ± 1.3% | 0.0% | 2.8 ± 0.6% | 4.8 ± 1.0% | 11.5 ± 0.7% | 21.2 ± 0.2% | 42.3 ± 0.7% | 6.7 ± 1.1% | weak effect
>250 µg/mL | >250 µg/mL | CC(C)c1cc2c(c(OC(=O)CCCc3cn(Cc4ccccc4)nn3)c1OC(=O)CCCc1cn(Cc3ccccc3)nn1)C13CCCC(C)(C)C1CC2OC3=O (stereo not drawn) [Compound 20, (7β)-11,12-O-(4-(1-benzyl-1H-1,2,3-triazol-4-yl)-butanoyloxy)-7,20-epoxyabieta-8,11,13-trien-20-one] | 0.0% | 0.0% | 0.0% | 2.7 ± 2.7% | 10.4 ± 0.2% | 14.5 ± 1.2% | 22.0 ± 1.0% | 0.7 ± 0.1% | 1.6 ± 0.2% | 3.0 ± 0.4% | 10.9 ± 1.6% | 21.4 ± 3.4% | 34.5 ± 0.5% | 4.3 ± 0.4% | –
125 µg/mL | 250 µg/mL | COC(=O)C12CCCC(C)(C)C1CCc1cc(C(C)C)c(OC(=O)CCCc3cn(Cc4ccccc4)nn3)c(OC(=O)CCCc3cn(Cc4ccccc4)nn3)c12 (stereo not shown) [Compound 12, Methyl(11,12-O-(4-(1-benzyl-1H-1,2,3-triazol-4-yl)-butanoyloxy)-abieta-8,11,13-triene)-20-oate] | 0.0% | 0.0% | 7.7 ± 1.6% | 9.6 ± 0.8% | 17.3 ± 0.2% | 67.5 ± 0.7% | 63.1 ± 2.1% | 3.4 ± 0.3% | 3.6 ± 0.4% | 5.6 ± 1.9% | 14.9 ± 1.1% | 27.9 ± 0.1% | 50.0 ± 5.0% | 9.3 ± 2.6% | –
